Holding throughout (assay type): biochemical
In one assay the target is T1, hGX sPLA2 (Homo sapiens, UniProt O15496).
T1 sequence (O15496 43-165): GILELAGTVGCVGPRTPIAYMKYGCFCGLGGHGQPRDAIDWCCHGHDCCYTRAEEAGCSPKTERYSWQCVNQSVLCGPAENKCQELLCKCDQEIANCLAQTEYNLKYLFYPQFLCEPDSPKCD
In words: continuous fluorimetric sPLA2 assay, human GX.

For the next assay, the target named is T2, cPLA2 (Homo sapiens, UniProt P47712).
T2 sequence (P47712 1-749): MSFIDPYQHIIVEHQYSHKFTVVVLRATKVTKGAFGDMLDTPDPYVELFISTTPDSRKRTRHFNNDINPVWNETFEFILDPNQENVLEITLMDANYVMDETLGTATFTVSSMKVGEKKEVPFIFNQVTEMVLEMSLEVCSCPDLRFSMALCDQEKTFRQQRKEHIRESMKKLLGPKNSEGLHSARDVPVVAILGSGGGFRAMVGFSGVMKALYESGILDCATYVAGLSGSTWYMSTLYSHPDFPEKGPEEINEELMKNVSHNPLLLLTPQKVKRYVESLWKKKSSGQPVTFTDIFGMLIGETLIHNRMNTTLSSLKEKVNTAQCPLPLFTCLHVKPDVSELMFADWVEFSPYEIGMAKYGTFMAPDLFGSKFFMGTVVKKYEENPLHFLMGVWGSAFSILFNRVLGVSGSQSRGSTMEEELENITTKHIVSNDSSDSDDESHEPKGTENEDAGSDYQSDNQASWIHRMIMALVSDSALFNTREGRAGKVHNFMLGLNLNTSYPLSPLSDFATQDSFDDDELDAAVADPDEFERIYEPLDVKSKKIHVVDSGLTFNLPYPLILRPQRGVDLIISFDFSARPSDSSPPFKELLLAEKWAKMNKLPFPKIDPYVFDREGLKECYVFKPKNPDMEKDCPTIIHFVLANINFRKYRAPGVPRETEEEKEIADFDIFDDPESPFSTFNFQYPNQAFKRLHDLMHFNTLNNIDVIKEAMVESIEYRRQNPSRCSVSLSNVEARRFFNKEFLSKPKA
In words: inhibition of cPLA2. The note with it: at 1µµ.

The next assay addresses T3, hGIIA sPLA2 (Homo sapiens, UniProt P14555).
T3 sequence (P14555 21-144): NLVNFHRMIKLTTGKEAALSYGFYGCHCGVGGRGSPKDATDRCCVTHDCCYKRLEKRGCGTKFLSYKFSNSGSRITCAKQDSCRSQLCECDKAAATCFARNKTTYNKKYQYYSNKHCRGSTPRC
In words: continuous fluorimetric sPLA2 assay, human GIIA. The note with it: compared with GK126.

Each structure is given as a SMILES string. “Also recorded” adds a separate entry of the source.

In the case of `CCCCCCCCCCCCCCC(=O)C(=O)N[C@@H](CC(C)C)C(=O)O` [GK126, (S)-4-Methyl-2-(2-oxohexadecanamido)pentanoic acid], the “inhibition of human GX sPLA2 (in words)” value against hGX sPLA2 is reported as “did not show any inhibition; also recorded: did not display any measurable inhibition”. Further, the “inhibition against cPLA2” value against cPLA2 is given as at most 12%.
For `CCCCCCCCCCCCCCC(=O)C(=O)N[C@@H](Cc1ccccc1)C(=O)O` [GK141, (S)-2-(2-Oxohexadecanamido)-3-phenylpropanoic acid], the “sPLA2 inhibitory activity (in words)” value on hGIIA sPLA2 was “inactive”.
In the case of `CCCCCCCCCCCCCCCC(=O)N[C@@H](CC(C)C)C(=O)O` [GK144, (S)-4-Methyl-2-palmitamidopentanoic acid], the “sPLA2 inhibitory activity (in words)” value on hGIIA sPLA2 was “inactive”.
